Measurements: patent US11286268B1, “EIF4E-inhibiting compounds and methods” (EFFECTOR THERAPEUTICS, INC., priority 2019, dated 2022)
Like-named read-outs stand apart in the source and are kept apart here.

Molecular target: recombinant eIF4E (Homo sapiens (Human), UniProt P06730)
Assay: Fluorescence polarization competition assay for eIF4E binding potency
Outline: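 Competition of test compound against 20 nM EDA-m^7GDP-ATTO-550 for 75 nM recombinant eIF4E, pre-incubated 5 min, in 20 mM Tris pH 7.5, 100 mM NaCl, 1 mM DTT, 0.02% Tween-20, 1% DMSO. Equilibrated 30 min at room temperature, dark; fluorescence polarization read. IC50 from 8-point, 3-fold dilution series.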

[1] = fluorescence polarization competition, 75 nM recombinant eIF4E, 20 nM EDA-m7GDP-ATTO-550, IC50 class, read-out: elF4E FP
[2] = inhibition of eIF4E/EDA-m7GDP-ATTO-550 binding by 50%, Table 4B calculated values, read-out: IC50

Chain of recombinant eIF4E (P06730 whole entry): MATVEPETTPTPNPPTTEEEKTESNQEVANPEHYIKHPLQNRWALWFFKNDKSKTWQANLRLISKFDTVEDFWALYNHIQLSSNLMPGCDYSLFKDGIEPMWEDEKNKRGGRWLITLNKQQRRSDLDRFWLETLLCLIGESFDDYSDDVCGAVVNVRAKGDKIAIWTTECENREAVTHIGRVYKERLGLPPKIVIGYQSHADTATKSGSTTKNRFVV

IC50 [1]	IC50 [2]	SMILES
< 50 nM	46.8 nM	Cc1cc(-c2cc(Cl)ccc2OCCn2c(C)nc3cncc(C#N)c3c2=O)c2scc(C(=O)O)c2n1 [compound 597]
50 to 1000 nM	57.2 nM	Cc1cc(-c2cc(Cl)ccc2OCCn2c(C)nc3cnc(C#N)cc3c2=O)c2scc(C(=O)NS(C)(=O)=O)c2n1 [compound 598]
50 to 1000 nM	61.6 nM	Cc1cc(-c2cc(Cl)ccc2C#CCn2c(C)nc3cnc(C#N)cc3c2=O)c2scc(C(=O)O)c2n1 [compound 599]
< 50 nM	14.2 nM	Cc1cc(-c2cc(Cl)ccc2OCCn2c(C)nc3cncc(C#N)c3c2=O)c2scc(C(=O)NS(C)(=O)=O)c2n1 [compound 600]
50 to 1000 nM	52 nM	Cc1cc(-c2cc(Cl)ccc2C#CCn2c(C)nc3cncc(C#N)c3c2=O)c2scc(C(=O)O)c2n1 [compound 601]
< 50 nM	10.2 nM	Cc1cc(-c2cc(Cl)ccc2OCCn2c(C)nc3cnc(OC(F)F)c(C#N)c3c2=O)c2scc(C(=O)O)c2n1 [compound 602]
< 50 nM	11.7 nM	Cc1nc(N2CCN(C)C3CC32)c(C#N)c2c(=O)n(CCOc3ccc(Cl)cc3-c3ccnc4c(C(=O)O)csc34)c(C)nc12 (centres unmarked) [compound 603]
50 to 1000 nM	70.7 nM	Cc1cc(-c2cc(Cl)ccc2OCCn2c(C)nc3c(OC(F)F)ncc(C#N)c3c2=O)c2scc(C(=O)O)c2n1 [compound 604]
< 50 nM	4.12 nM	Cc1cc(-c2cc(Cl)ccc2OCCn2c(C)nc3cc(CCCN(C)C)c(Cl)c(C#N)c3c2=O)c2scc(C(=O)O)c2n1 [compound 606]
< 50 nM	5.5 nM	Cc1cc(-c2cc(Cl)ccc2OCCn2c(C)nc3cc(CCN(C)C)c(OC(F)F)c(C#N)c3c2=O)c2scc(C(=O)O)c2n1 [compound 607]
< 50 nM	18.6 nM	Cc1cc(-c2cc(Cl)ccc2OCCn2c(C)nc3c(F)cc(CCN(C)C)c(C#N)c3c2=O)c2scc(C(=O)O)c2n1 [compound 608]
< 50 nM	33.1 nM	Cc1cc(-c2cc(Cl)ccc2OCCn2c(C)nc3cc(Cl)c(CCN(C)C)c(C#N)c3c2=O)c2scc(C(=O)O)c2n1 [compound 609]
< 50 nM	13.9 nM	Cc1cc(-c2cc(Cl)ccc2OCCn2c(C)nc3cc(C(F)(F)F)c(CCN(C)C)c(C#N)c3c2=O)c2scc(C(=O)O)c2n1 [compound 610]
< 50 nM	7.76 nM	Cc1cc(-c2cc(Cl)ccc2OCCn2c(C)nc3cc4c(c(C#N)c3c2=O)CC(N(C)C)C4)c2scc(C(=O)O)c2n1 (centres unmarked) [compound 611]
< 50 nM	43.8 nM	Cc1cc(-c2cc(Cl)ccc2OCCn2c(C)nc3cc4c(c(C#N)c3c2=O)C(N(C)C)CC4)c2scc(C(=O)O)c2n1 (centres unmarked) [compound 612]
< 50 nM	7.89 nM	Cc1cc(-c2cc(Cl)ccc2OCCn2c(C)nc3cc4c(c(C#N)c3c2=O)CCC4N(C)C)c2scc(C(=O)O)c2n1 (centres unmarked) [compound 613]
< 50 nM	16.3 nM	Cc1nc2cc(C(F)(F)F)c(CN3CCN(C)CC3)c(C#N)c2c(=O)n1CC#Cc1ccc(Cl)cc1-c1ccnc2c(C(=O)O)csc12 [compound 615]
< 50 nM	2.45 nM	Cc1cc(-c2cc(Cl)ccc2C#CCn2c(C)nc3cc(C(F)(F)F)c(CN4CCN(C)CC4)c(C#N)c3c2=O)c2scc(C(=O)O)c2n1 [compound 616]
< 50 nM	39.7 nM	Cc1nc2cc(C(F)(F)F)c(CN3CCOCC3)c(C#N)c2c(=O)n1CC#Cc1ccc(Cl)cc1-c1ccnc2c(C(=O)O)csc12 [compound 617]

The next lines start with the compound.

SMILES	IC50 [1]	IC50 [2]
Cc1nc2cc(C(F)(F)F)cc(C#N)c2c(=O)n1CCOc1ccc(Cl)cc1-c1cc(C(F)F)nc2c(C(=O)O)csc12 [compound 563]	< 50 nM	14.4 nM
Cc1ccc(-c2cc(Cl)ccc2OCCn2c(C)nc3cc(C(F)(F)F)c(CN(C)C)c(C#N)c3c2=O)c2scc(C(=O)O)c12 [compound 564]	< 50 nM	40.5 nM
Cc1cc(-c2cc(Cl)ccc2OCCn2c(C)nc3cc(C(F)(F)F)cc(C#N)c3c2=O)c2scc(C(=O)NS(C)(=O)=O)c2n1 [compound 565]	< 50 nM	29.7 nM
Cc1cc(-c2cc(Cl)ccc2OCCn2c(C)nc3c(F)cc(C(F)F)c(C#N)c3c2=O)c2scc(C(=O)NS(C)(=O)=O)c2n1 [compound 566]	< 50 nM	16.4 nM
Cc1cc(-c2cc(Cl)ccc2OCCn2c(C)nc3cc(F)c(F)c(C#N)c3c2=O)c2scc(C(=O)NS(C)(=O)=O)c2n1 [compound 567]	< 50 nM	11.7 nM
Cc1cc(-c2cc(Cl)ccc2OCCn2c(C)nc3cc(C(F)(F)F)c(CN(C)C)c(C#N)c3c2=O)c2scc(C(=O)NS(C)(=O)=O)c2n1 [compound 568]	< 50 nM	14.1 nM
Cc1nc2cc(C(F)(F)F)cc(C#N)c2c(=O)n1CCOc1ccc(Cl)cc1-c1ccnc2c(C(=O)NS(C)(=O)=O)csc12 [compound 569]	< 50 nM	2 nM
CC(=O)NS(=O)(=O)c1csc2c(-c3cc(Cl)ccc3OCCn3c(C)nc4c(F)cc(C(F)F)c(C#N)c4c3=O)cc(C)nc12 [compound 570]	< 50 nM	5.57 nM
Cc1cc(-c2cc(Cl)c(F)cc2OCCn2c(C)nc3cc(C(F)(F)F)cc(C#N)c3c2=O)c2scc(C(=O)O)c2n1 [compound 571]	50 to 1000 nM	54.8 nM
Cc1ccc2nc(C)n(CCOc3ccc(Cl)cc3-c3ccnc4c(C(=O)O)csc34)c(=O)c2c1C#N [compound 572]	< 50 nM	30.6 nM
Cc1cc(C#N)c2c(=O)n(CCOc3ccc(Cl)cc3-c3ccnc4c(C(=O)O)csc34)c(C)nc2c1 [compound 573]	50 to 1000 nM	54.7 nM
Cc1ccc(C#N)c2c(=O)n(CCOc3ccc(Cl)cc3-c3ccnc4c(C(=O)O)csc34)c(C)nc12 [compound 574]	50 to 1000 nM	57.5 nM
Cc1nc2ccc(CCN(C)C)c(C#N)c2c(=O)n1CCOc1ccc(Cl)cc1-c1cc(OC(F)F)nc2c(C(=O)O)csc12 [compound 575]	< 50 nM	25.7 nM
Cc1ccc(-c2cc(Cl)ccc2OCCn2c(C)nc3ccc(CCN(C)C)c(C#N)c3c2=O)c2scc(C(=O)O)c12 [compound 576]	< 50 nM	17.7 nM
Cc1nc2ccc(CCN(C)C)c(C#N)c2c(=O)n1CCOc1ccc(Cl)cc1-c1ccc(C(F)F)c2c(C(=O)O)csc12 [compound 577]	< 50 nM	39.4 nM
Cc1nc2ccc(CCN(C)C)c(C#N)c2c(=O)n1CCOc1ccc(Cl)cc1-c1ccc(C(F)(F)F)c2c(C(=O)O)csc12 [compound 578]	< 50 nM	32 nM
Cc1cc(-c2cc(Cl)ccc2OCCn2c(C)nc3cc(OC(F)F)cc(C#N)c3c2=O)c2scc(C(=O)O)c2n1 [compound 579]	< 50 nM	30.2 nM

SMILES	IC50 [1]	IC50 [2]
Cc1cc(-c2cc(Cl)ccc2OCCn2c(C)nc3cc(OC(F)F)cc(C#N)c3c2=O)c2scc(C(=O)NS(C)(=O)=O)c2n1 [compound 580]	< 50 nM	24.2 nM
Cc1cc(-c2cc(Cl)ccc2OCCn2c(C)nc3cc(Cl)c(Cl)c(C#N)c3c2=O)c2scc(C(=O)O)c2n1 [compound 582]	< 50 nM	12.7 nM
Cc1cc(-c2cc(Cl)ccc2OCCn2c(C)nc3ccc(OC(F)(F)F)c(C#N)c3c2=O)c2scc(C(=O)O)c2n1 [compound 583]	< 50 nM	15.9 nM
Cc1cc(-c2cc(Cl)ccc2OCCn2c(C)nc3ccc(CCN(C)C)c(C#N)c3c2=O)c2scc(C(=O)O)c2n1 [compound 584]	< 50 nM	23.5 nM
Cc1cc(-c2cc(Cl)ccc2OCCn2c(C)nc3cc(OC(F)F)c(F)c(C#N)c3c2=O)c2scc(C(=O)O)c2n1 [compound 585]	< 50 nM	29.6 nM
Cc1cc(-c2cc(Cl)ccc2OCCn2c(C)nc3cc(Cl)c(C(F)F)c(C#N)c3c2=O)c2scc(C(=O)O)c2n1 [compound 586]	< 50 nM	50 nM
Cc1cc(-c2cc(Cl)ccc2OCCn2c(C)nc3c(F)cc(C(F)F)c(C#N)c3c2=O)c2scc(C(=O)O)c2n1 [compound 587]	< 50 nM	25.5 nM
Cc1cc(-c2cc(Cl)ccc2OCCn2c(C)nc3c(F)cc(Cl)c(C#N)c3c2=O)c2scc(C(=O)O)c2n1 [compound 588]	< 50 nM	49.3 nM
Cc1cc(-c2cc(Cl)ccc2OCCn2c(C)nc3c(F)c(C(F)(F)F)cc(C#N)c3c2=O)c2scc(C(=O)O)c2n1 [compound 589]	< 50 nM	4.45 nM
Cc1nc2cc(C(F)(F)F)cc(C#N)c2c(=O)n1CCOc1ccc(Cl)cc1-c1cn(C)c(=O)c2c(C(=O)O)csc12 [compound 590]	< 50 nM	2.26 nM
CCc1sc2c(-c3cc(Cl)ccc3OCCn3c(C)nc4cc(C(F)(F)F)cc(C#N)c4c3=O)ccnc2c1C(=O)O [compound 591]	< 50 nM	44.9 nM
Cc1cc(-c2cc(Cl)ccc2OCCn2c(C)nc3cc(OC(F)F)c(CCN(C)C)c(C#N)c3c2=O)c2scc(C(=O)O)c2n1 [compound 592]	< 50 nM	10.3 nM
Cc1cc(-c2cc(Cl)ccc2OCCn2c(C)nc3c(F)cc(C(F)F)c(C#N)c3c2=O)c2scc(C(=O)NS(=O)(=O)C(F)(F)F)c2n1 [compound 593]	< 50 nM	32.9 nM
Cc1cc(-c2cc(Cl)ccc2OCCn2c(C)nc3c(F)cc(C(F)F)c(C#N)c3c2=O)c2scc(C(=O)NC(=O)N(C)C)c2n1 [compound 594]	> 1000 nM	1350 nM
C=C1c2c(C#N)cc(C(F)(F)F)cc2N=C(C)N1CCOc1ccc(Cl)cc1-c1cc(CCO)nc2c(C(=O)O)csc12 [compound 595]	< 50 nM	24.8 nM
Cc1cc(-c2cc(Cl)ccc2OCCn2c(C)nc3cnc(C#N)cc3c2=O)c2scc(C(=O)O)c2n1 [compound 596]	< 50 nM	37.7 nM
